{"source": "PubChem BioAssay AID248", "about": "(DTP/NCI, 2004)", "tested_on": "L1210 leukemia ip in BDF1 mice, survival T/C", "assay": "NCI In Vivo Anticancer Drug Screen. Data for tumor model L1210 Leukemia (intraperitoneal) in B6D2F1 (BDF1) mice", "conditions": "endpoint: mean survival time, higher = longer survival", "summary_of_the_method": "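Transplanted-tumor mice were given test agent; controls received vehicle only. Survival readings from the two groups were divided (treated over control).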", "key": {"[1]": {"conditions": "dose: 100.0 mg/kg/injection, schedule: Q01DX009 (ip), vehicle: Klucel (hydroxypropylcellulose) (HPC)"}, "[2]": {"conditions": "dose: 200.0 mg/kg/injection, schedule: Q01DX009 (ip), vehicle: Klucel (hydroxypropylcellulose) (HPC)"}, "[3]": {"conditions": "dose: 100.0 mg/kg/injection, schedule: Q01DX001 (ip), vehicle: saline with Tween-80"}, "[4]": {"conditions": "dose: 200.0 mg/kg/injection, schedule: Q01DX001 (ip), vehicle: saline with Tween-80"}, "[5]": {"conditions": "dose: 400.0 mg/kg/injection, schedule: Q01DX001 (ip), vehicle: saline with Tween-80"}}, "note": "Toxic doses and inconclusive results are not listed."}
{"compound": "CC(CNC1=NCCN1)c1cccc2ccccc12", "note": "(stereo unspecified)", "values": [{"measurement": "T/C", "setting": "dose: 50.0 mg/kg/injection, schedule: Q01DX009 (ip), vehicle: Klucel (hydroxypropylcellulose) (HPC)", "value": "111 % of control"}, {"measurement": "T/C", "setting": "[1]", "value": "103 % of control"}, {"measurement": "T/C", "setting": "[2]", "value": "108 % of control"}]}
{"compound": "CC1OC(C2COC(C)(C)O2)C2OC(C)(C)OC12", "note": "(stereo unspecified)", "values": [{"measurement": "T/C", "setting": "[3]", "value": "101 % of control"}, {"measurement": "T/C", "setting": "[4]", "value": "101 % of control"}, {"measurement": "T/C", "setting": "[5]", "value": "101 % of control"}]}
{"compound": "Cc1ccc(S(=O)(=O)OCC(O)C(O)C(O)C(O)C=O)cc1", "note": "(stereo unspecified) (tested in a mixture with another compound)", "values": [{"measurement": "T/C", "setting": "dose: 100.0 mg/kg/injection, schedule: Q04DX003 (ip), vehicle: saline with Tween-80", "value": "102 % of control"}, {"measurement": "T/C", "setting": "dose: 200.0 mg/kg/injection, schedule: Q04DX003 (ip), vehicle: saline with Tween-80", "value": "94 % of control"}, {"measurement": "T/C", "setting": "dose: 400.0 mg/kg/injection, schedule: Q04DX003 (ip), vehicle: saline with Tween-80", "value": "94 % of control"}]}
{"compound": "CCOP(=S)(N/N=C\\C(C)(C)C1CCCCC1)OCC", "values": [{"measurement": "T/C", "setting": "dose: 100.0 mg/kg/injection, schedule: Q01DX001 (ip), vehicle: carboxymethylcellulose (CMC)", "value": "94 % of control"}, {"measurement": "T/C", "setting": "dose: 200.0 mg/kg/injection, schedule: Q01DX001 (ip), vehicle: carboxymethylcellulose (CMC)", "value": "91 % of control"}, {"measurement": "T/C", "setting": "dose: 400.0 mg/kg/injection, schedule: Q01DX001 (ip), vehicle: carboxymethylcellulose (CMC)", "value": "98 % of control"}]}
{"compound": "Cc1nc(N)nc(Cl)c1CCCc1ccccc1", "values": [{"measurement": "T/C", "setting": "dose: 100.0 mg/kg/injection, schedule: Q01DX001 (ip), vehicle: Klucel (hydroxypropylcellulose) (HPC)", "value": "97 % of control"}, {"measurement": "T/C", "setting": "dose: 200.0 mg/kg/injection, schedule: Q01DX001 (ip), vehicle: Klucel (hydroxypropylcellulose) (HPC)", "value": "102 % of control"}, {"measurement": "T/C", "setting": "dose: 400.0 mg/kg/injection, schedule: Q01DX001 (ip), vehicle: Klucel (hydroxypropylcellulose) (HPC)", "value": "107 % of control"}]}
{"compound": "O=C(NCCCCCCCCCCNC(=O)Nc1ccc(C2=NCCN2)cc1)Nc1ccc(C2=NCCN2)cc1", "values": [{"measurement": "T/C", "setting": "dose: 62.5 mg/kg/injection, schedule: Q01DX Z (ip), vehicle: carboxymethylcellulose (CMC)", "value": "98 % of control"}, {"measurement": "T/C", "setting": "dose: 125.0 mg/kg/injection, schedule: Q01DX Z (ip), vehicle: carboxymethylcellulose (CMC)", "value": "98 % of control"}, {"measurement": "T/C", "setting": "dose: 250.0 mg/kg/injection, schedule: Q01DX Z (ip), vehicle: carboxymethylcellulose (CMC)", "value": "106 % of control"}, {"measurement": "T/C", "setting": "dose: 500.0 mg/kg/injection, schedule: Q01DX Z (ip), vehicle: carboxymethylcellulose (CMC)", "value": "114 % of control"}]}
{"compound": "CCCCCCCCCCCCNC(=O)C[n+]1cccc(C(=O)N(C)C)c1", "values": [{"measurement": "T/C", "setting": "dose: 5.0 mg/kg/injection, schedule: Q04DX003 (ip), vehicle: saline", "value": "93 % of control"}, {"measurement": "T/C", "setting": "dose: 10.0 mg/kg/injection, schedule: Q04DX003 (ip), vehicle: saline", "value": "96 % of control"}, {"measurement": "T/C", "setting": "dose: 20.0 mg/kg/injection, schedule: Q04DX003 (ip), vehicle: saline", "value": "93 % of control"}]}
{"compound": "O=C(O)c1cc2ccccc2c(N=Nc2ccc(S(=O)(=O)N(CCCl)CCCl)cc2)c1O", "values": [{"measurement": "T/C", "setting": "[1]", "value": "113 % of control"}, {"measurement": "T/C", "setting": "[2]", "value": "103 % of control"}, {"measurement": "T/C", "setting": "dose: 400.0 mg/kg/injection, schedule: Q01DX009 (ip), vehicle: Klucel (hydroxypropylcellulose) (HPC)", "value": "111 % of control"}]}
{"compound": "NC(N)=N/N=C(\\c1ccc(F)cc1)c1ccc(C(F)(F)F)cc1", "values": [{"measurement": "T/C", "setting": "dose: 9.5 mg/kg/injection, schedule: Q01DX001 (ip), vehicle: other", "value": "92 % of control"}, {"measurement": "T/C", "setting": "dose: 19.0 mg/kg/injection, schedule: Q01DX001 (ip), vehicle: other", "value": "97 % of control"}, {"measurement": "T/C", "setting": "dose: 38.0 mg/kg/injection, schedule: Q01DX001 (ip), vehicle: other", "value": "98 % of control"}]}
{"compound": "O=C(O)C(Br)CBr", "note": "(stereo unspecified)", "values": [{"measurement": "T/C", "setting": "dose: 100.0 mg/kg/injection, schedule: Q01DX001 (ip), vehicle: saline", "value": "90 % of control"}]}
{"compound": "CC1=C(C)CC(/C(=N\\Nc2ccc([N+](=O)[O-])cc2[N+](=O)[O-])c2ccccc2)CC1", "note": "(stereo unspecified)", "values": [{"measurement": "T/C", "setting": "[3]", "value": "89 % of control"}, {"measurement": "T/C", "setting": "[4]", "value": "89 % of control"}, {"measurement": "T/C", "setting": "[5]", "value": "96 % of control"}]}
{"compound": "CC(C(O)c1ccncc1)[N+](=O)[O-]", "note": "(stereo unspecified)", "values": [{"measurement": "T/C", "setting": "dose: 100.0 mg/kg/injection, schedule: Q04DX002 (ip), vehicle: saline with Tween-80", "value": "92 % of control"}, {"measurement": "T/C", "setting": "dose: 200.0 mg/kg/injection, schedule: Q04DX002 (ip), vehicle: saline with Tween-80", "value": "107 % of control"}, {"measurement": "T/C", "setting": "dose: 400.0 mg/kg/injection, schedule: Q04DX002 (ip), vehicle: saline with Tween-80", "value": "92 % of control"}]}
